According to patent US20050288347A1, “Certain triazole-based compounds, compositions, and uses thereof” (priority 2004, published 2005):
Entries after “also recorded” stand apart in the source; their conditions may differ.

Each compound was assayed against protein kinase (assay: HTS ATP-utilizing enzyme assay, off-chip mobility-shift format (Caliper HTS 250)). Conditions: kinase(s) for which the compound exhibits protein kinase inhibitory activity; test compound 10 μM; active = greater than three-sigma from the mean activity of inactive compounds.
Type: biochemical, human
Text: The following procedures describe the reagent and plate preparation for a HTS of an ATP-utilizing enzyme, such as a protein kinase, run in an off-chip mobility-shift assay format. The following provides an HTS protocol for running a protein kinase HTS screen on a Caliper HTS 250 microfluidics system. The following parameters are dependent on the protein kinase used and can be determined by one skilled in the art as part of a typical assay development process. For example, the peptide substrate used can be identified from the current literature, by screening a peptide library of potential protein kinase substrates, or by other applicable means accepted in the field.
The following table provides typical screen assay parameters appropriate for a Caliper HTS 250 microfluidics system.
The reagents and buffers listed in the following table are generally applicable for developing and running an HTS screen on a human protein kinase using the Caliper HTS 250 system.
The following reagents were prepared using the previously described buffers.
A 2× Master Buffer solution was prepared by combining 200 mL of 1 M HEPES, pH 7.5, 2 mL of 10% Triton X-100, 20 mL of 10% BSA, and 778 mL of H2O.
Assays to determine the kinase inhibitory activity of chemical entities of the present disclosure were performed using a Caliper HTS 250 microfluidics device, Greiner U-bottom assay plates, a Multidrop for transfer of reagents, and Biomek FX (AMNCBM03) software. Initially, 2.4 μL of a 1 mM solution of a test compound in 100% DMSO was added to a well of the Greiner U-bottom plate. A single Greiner U-bottom plate having 24×16 wells could include multiple test compounds. […] Using the Biomek FX, 10 μL of 0.5 M EDTA was added by the span-8 to wells, indicated as 100% Control and 2.4 μL of 100% DMSO was added by the span-8 to wells, indicated as 0% Control. […] The total reaction volume in each well was 25 μL, and the concentration of the test compound was 10 μM. The assay plate was incubated for 2.5 hrs at 20° C. to 22° C. […] The inhibition of the ATP-utilizing enzyme, such as a particular protein kinase, was determined by measuring the ratio of the peptide substrate to phosphorylated product for each well of the assay plate using the Caliper HTS 250 system.
The use of three-sigma statistical limits represents a conservative method for declaring potential hits among targets. The three-sigma activity, as well as the mean population activity, can be different for each target enzyme.

Structure (SMILES) | Kinase
Cc1cccc(OCc2nnc(SCC(=O)N3CCCc4ccccc43)n2Cc2ccco2)c1C | AKT1
Cc1cc(NC(=O)CSc2nnc(-c3cccnc3)n2-c2ccc(F)cc2)no1 | FYN
COc1ccc(-n2c(SCC(=O)N3CCC(C)CC3)nnc2-c2ccccc2)cc1 | DAPK1
O=C(CSc1nnc(-c2ccc(O)cc2)n1Cc1ccco1)N1c2ccccc2Sc2ccccc21 | GSK3-β and GSK3-α and MSK2
O=C(CSc1nnc(-c2ccncc2)n1Cc1ccco1)Nc1ccccc1 | SRC and GSK3-α and AKT3
O=C(CSc1nnc(-c2ccccc2O)n1Cc1ccccc1)Nc1cccc(I)c1 | SYK
CNC(=O)CSc1nnc(COc2ccccc2)n1Cc1ccccc1 | FYN
CCn1c(SCC(=O)N2CCOCC2)nnc1-c1ccc(S(=O)(=O)N2CCCCC2)cc1 | PAK2
CCn1c(CNc2ccc(OC)cc2)nnc1SCC(=O)Nc1ccccc1C(F)(F)F | FYN and PDGFRR-α and FLT-3
Cc1csc(NC(=O)CSc2nnc(-c3cccnc3)n2C)n1 | PAK2
COc1ccccc1-n1c(SCC(N)=O)nnc1-c1ccccc1O | AURORA-A
CCN(CC)S(=O)(=O)c1ccc(-c2nnc(SCC(=O)Nc3nccs3)n2CC)cc1 | GSK3-α; also recorded: GSK3-β
COc1ccc(C)cc1NC(=O)CSc1nnc(-c2ccc(Br)cc2)n1-c1ccccc1 | SYK
Cn1c(SCC(=O)Nc2cccc(C(F)(F)F)c2)nnc1-c1ccc(O)cc1 | GSK3-β and SRC and GSK3-α
Cc1ccc(NC(=O)CSc2nnc(-c3ccc(O)cc3)n2C)cc1 | GSK3-β; also recorded: GSK3-α
COCCCn1c(SCC(=O)N2CCCCC2)nnc1-c1ccc(C(C)(C)C)cc1 | CDK5
Cn1c(SCC(=O)N(CC(=O)NC2CCCCC2)C2CCCC2)nnc1-c1ccc(C(C)(C)C)cc1 | DAPK1
COc1ccc(-n2c(CNc3ccccc3Cl)nnc2SCC(=O)Nc2ccc([N+](=O)[O-])cc2)cc1 | CHEK2
Cc1ccc(NCc2nnc(SCC(=O)Nc3cccc(O)c3)n2Cc2ccco2)c(C)c1 | CHEK2
CCn1c(CNc2cccc(Cl)c2)nnc1SCC(=O)NCc1ccco1 | PAK2
CCc1cccc(C)c1NC(=O)CSc1nnc(CNc2ccc(Cl)cc2)n1CC | LCK
Cc1cccc(C)c1NC(=O)C(C)Sc1nnc(CNc2ccc(Cl)cc2)n1-c1ccccc1 (centres unmarked) | CDK2-cyclinE

Structure (SMILES) | Kinase
NC(=O)CSc1nnc(CNc2ccc(F)cc2)n1-c1ccccc1 | FLT-3
COc1ccc(OCc2nnc(SCC(=O)Nc3ccccc3OC)n2C)cc1 | PDGFRR-α and PKA
COc1ccc(NCc2nnc(SCC(=O)Nc3ccccc3C)n2C)cc1 | INSR and CHEK1 and FYN
COc1ccc(NCc2nnc(SCC(=O)Nc3cccc(C(F)(F)F)c3)n2C)cc1 | PDGFRR-α and FYN and FLT-3
COc1ccc(NCc2nnc(SCC(=O)Nc3ccccc3)n2-c2ccc(C)cc2)cc1 | FYN and PDGFRR-α and FLT-3
COc1ccc(NCc2nnc(SCC(=O)Nc3ccccc3C(F)(F)F)n2-c2ccccc2)cc1 | PDGFRR-α
Cc1cc(C)nc(SCc2nnc(SCC(=O)Nc3ccccc3)n2-c2ccccc2)n1 | MAPKAPK-2
Cc1ccc(NCc2nnc(SCC(=O)N3c4ccccc4Sc4ccccc43)n2C)cc1 | DAPK1
Cc1ccc(NCc2nnc(SCC(=O)Nc3ccc(C)cc3Br)n2-c2ccccc2)cc1 | AURORA-A
COc1ccc(-n2c(Cc3ccccc3)nnc2SCC(=O)Nc2ccccc2)cc1 | CHEK2
COc1ccccc1-n1c(SCC(=O)Nc2cccc(C(=O)O)c2)nnc1-c1ccccc1O | AURORA-A
COc1ccc(NCc2nnc(S)n2-c2cccc(Cl)c2)cc1 | PDGFRR-α and AURORA-A and FYN
COc1ccc(-n2c(S)nnc2COc2ccc3ccccc3c2)cc1 | GSK3-α and CDK1
Cc1ccc(S(=O)(=O)Nc2ccc(-c3nnc(SCC(=O)N4CCCCC4)n3C)cc2)cc1 | AKT1
Cc1ccc(-n2c(C)nnc2SCc2nnc(S)n2-c2ccccc2)cc1 | PDGFRR-α
COc1ccc(OCc2nnc(SCC(=O)Nc3ccc(C)cc3Br)n2-c2ccccc2)cc1 | CDK1
COc1ccc(NCc2nnc(SCC(=O)Nc3ccc(C)cc3Br)n2C)cc1 | FYN and PDGFRR-α and FLT-3
CCOc1ccc(NCc2nnc(SCC(=O)Nc3ccccc3Br)n2-c2ccccc2)cc1 | PDGFRR-α and FYN and FLT-3
Cc1cccc(NC(=O)CSc2nnc(-c3ccc(O)cc3)n2-c2ccccc2)c1C | MSK2
COc1ccc(NC(=O)CSc2nnc(-c3ccccc3O)n2-c2ccccc2)c(OC)c1 | CDK1
COCCCn1c(SCC(=O)Nc2c(C)cccc2C)nnc1-c1ccncc1 | FYN
COc1ccc(NCc2nnc(SCC(=O)Nc3cccc(C(C)=O)c3)n2-c2ccc(Cl)cc2)cc1 | PDGFRR-α and FYN and FLT-3

Structure (SMILES) | Kinase
COc1ccc(-n2c(CNc3ccccc3Cl)nnc2SCC(=O)Nc2cccc(C(C)=O)c2)cc1 | CHEK2
CCn1c(COc2ccccc2)nnc1SCC(=O)Nc1sc2c(c1C#N)CCCC2 | AKT1
Cc1cc(NC(=O)CSc2nnc(-c3ccc(O)cc3)n2C)ccc1NC(=O)c1ccccc1C | GSK3-β; also recorded: GSK3-α
COc1ccc(-n2c(S)nnc2-c2ccc(NS(=O)(=O)c3ccc(C)cc3)cc2)cc1 | GSK3-β; also recorded: GSK3-α; also recorded: AURORA-A
COc1ccc(NCc2nnc(SCC(=O)Nc3ccc(C(C)=O)cc3)n2-c2ccc(OC)cc2)cc1 | PDGFRR-α and FYN and c-TAK1
CCn1c(CNc2cccc(Cl)c2)nnc1SCC(=O)Nc1ccc(C(C)=O)cc1 | CDK1
COc1ccc(NCc2nnc(SCC(=O)Nc3ccc(C(C)=O)cc3)n2C)cc1 | PDGFRR-α and FLT-3 and FYN
COc1ccc(NCc2nnc(SCC(=O)Nc3ccc(Br)cc3)n2C)cc1 | PDGFRR-α and FYN and AURORA-A
CCC(=O)Nc1cc(NC(=O)CSc2nnc(-c3ccc(O)cc3)n2CC)ccc1C | SGK1
CCn1c(SCC(=O)Nc2nc3ccccc3s2)nnc1-c1cccnc1 | GSK3-β; also recorded: GSK3-α; also recorded: CDK2-cyclinE
Cn1c(SCC(=O)Nc2nc3ccccc3s2)nnc1-c1ccco1 | GSK3-α
CCn1c(CNc2ccc(OC)cc2)nnc1SCC(=O)Nc1ccccc1-c1ccccc1 | PDGFRR-α and FYN and GSK3-β
CCOC(=O)CN(C(=O)CSc1nnc(-c2ccncc2)n1CCCN(C)C)c1cccc([N+](=O)[O-])c1 | CDK1
CCOC(=O)CN(C(=O)CSc1nnc(-c2ccccc2O)n1CCc1ccccc1)c1cccc([N+](=O)[O-])c1 | AURORA-A
CCOC(=O)c1c(NC(=O)CSc2nnc(-c3ccccc3O)n2CCc2ccccc2)sc(C)c1C | CDK2-cyclinA
CCOC(=O)c1sc(NC(=O)CSc2nnc(-c3ccc(O)cc3)n2CC2CCCO2)nc1C (centres unmarked) | GSK3-β; also recorded: GSK3-α
CCOC(=O)c1cccc(NC(=O)CSc2nnc(CNc3ccc(OC)cc3)n2-c2ccc(OC)cc2)c1 | AURORA-A; also recorded: PDGFRR-α; also recorded: CHEK2
CCOC(=O)c1ccc(NC(=O)CSc2nnc(-c3ccc(O)cc3)n2C)cc1 | GSK3-β; also recorded: AURORA-A; also recorded: GSK3-α
CCn1c(CNc2cccc(Cl)c2)nnc1SCC(=O)Nc1ccccc1C(=O)OC | AURORA-A
COC(=O)c1ccccc1NC(=O)CSc1nnc(CNc2ccc(OC)cc2)n1-c1ccc(C)cc1 | PDGFRR-α and AURORA-A and FYN
COC(=O)c1ccc(NC(=O)CSc2nnc(-c3ccccc3O)n2-c2ccccc2OC)cc1 | AURORA-A
